Assay results as given in ChEMBL document CHEMBL1145503, “Paradoxical effect of Echinocandins across Candida species in vitro: evidence for echinocandin-specific and candida species-related differences” (2007).
≈ marks a conversion by molar mass, not a printed value. Numbered stars: 1 amine (or outer) side, 2 acyl side, 3 side chain; on linkers, the order of the positions; unused ones are H or OH. Bridge positions count the residues as written; N and C are the ends. Square brackets hold non-standard residues; d marks the D form. Peptide text beside a SMILES is read from it. * marks the point of attachment. hTyr(3S-OH,4S-OH,3'-OSO3H) = N[C@H](C(=O)O)[C@H](O)[C@@H](O)c1ccc(O)c(OS(=O)(=O)O)c1; pTerphenylCO(4''-OnC5H11) = CCCCCOc1ccc(-c2ccc(-c3ccc(C(=O)*)cc3)cc2)cc1; Orn(4R-OH,5R-OH) = O=C([C@H](C[C@@H](O)[C@@H](O)N[*:3])N[*:1])[*:2]; hTyr(3S-OH,4S-OH) = N[C@H](C(=O)O)[C@H](O)[C@@H](O)c1ccc(O)cc1; Pro(3S-OH,4S-Me) = C[C@H]1CN[C@H](C(=O)O)[C@H]1O; X1 = CCCCCOc1ccc(-c2cc(-c3ccc(C(=O)*)cc3)no2)cc1; Gln(3R-OH) = NC(=O)C[C@@H](O)[C@H](N)C(=O)O; Hyp = O=C(O)[C@@H]1C[C@@H](O)CN1

How the values were obtained:
Type in all cases: functional
Nakaseomyces glabratus [1] = assay: Antifungal activity against Candida glabrata after 48 hrs
Candida albicans [2] = assay: Antifungal activity against Candida albicans after 48 hrs
Pichia kudriavzevii [3] = assay: Antifungal activity against Candida krusei after 48 hrs
Candida parapsilosis [4] = assay: Antifungal activity against Candida parapsilosis after 48 hrs; conditions: Lodderomyces parapsilosis
Pichia kudriavzevii [5] = assay: Paradoxical effect in Candida krusei assessed as increase in turbidity at 64 times MIC
Candida tropicalis [6] = assay: Paradoxical effect in Candida tropicalis assessed as increase in turbidity at 64 times MIC
Candida albicans [7] = assay: Paradoxical effect in Candida albicans assessed as increase in turbidity at 64 times MIC
Candida parapsilosis [8] = assay: Paradoxical effect in Candida parapsilosis assessed as increase in turbidity at 64 times MIC
Nakaseomyces glabratus [9] = assay: Paradoxical effect in Candida glabrata assessed as increase in turbidity at 64 times MIC
Candida tropicalis [10] = assay: Antifungal activity against Candida tropicalis after 48 hrs
Pichia kudriavzevii [11] = assay: Paradoxical effect in Candida krusei assessed as increase in turbidity at 16 times MIC
Nakaseomyces glabratus [12] = assay: Paradoxical effect in Candida glabrata assessed as increase in turbidity at 16 times MIC
Candida parapsilosis [13] = assay: Paradoxical effect in Candida parapsilosis assessed as increase in turbidity at 16 times MIC
Candida tropicalis [14] = assay: Paradoxical effect in Candida tropicalis assessed as increase in turbidity at 16 times MIC
Candida albicans [15] = assay: Paradoxical effect in Candida albicans assessed as increase in turbidity at 16 times MIC
Nakaseomyces glabratus [16] = assay: Paradoxical effect in Candida glabrata assessed as increase in turbidity at 96 times MIC
Pichia kudriavzevii [17] = assay: Paradoxical effect in Candida krusei assessed as increase in turbidity at 96 times MIC
Candida parapsilosis [18] = assay: Paradoxical effect in Candida parapsilosis assessed as increase in turbidity at 96 times MIC
Candida tropicalis [19] = assay: Paradoxical effect in Candida tropicalis assessed as increase in turbidity at 96 times MIC
Candida albicans [20] = assay: Paradoxical effect in Candida albicans assessed as increase in turbidity at 96 times MIC

Structure (SMILES) | MIC50 (Nakaseomyces glabratus [1]) [µg/mL] | MIC90 (Nakaseomyces glabratus [1]) [µg/mL] | MIC50 (Candida albicans [2]) [µg/mL] | MIC90 (Candida albicans [2]) [µg/mL] | MIC50 (Pichia kudriavzevii [3]) [µg/mL] | MIC90 (Pichia kudriavzevii [3]) [µg/mL] | MIC50 (Candida parapsilosis [4]) [µg/mL] | MIC90 (Candida parapsilosis [4]) [µg/mL] | MIC50 (Candida tropicalis [10]) [µg/mL] | MIC90 (Candida tropicalis [10]) [µg/mL] | other results
CC[C@H](C)C[C@H](C)CCCCCCCCC(=O)N[C@H]1C[C@@H](O)[C@@H](NCCN)NC(=O)[C@@H]2[C@@H](O)CCN2C(=O)[C@H]([C@H](O)CCN)NC(=O)[C@H]([C@H](O)[C@@H](O)c2ccc(O)cc2)NC(=O)[C@@H]2C[C@@H](O)CN2C(=O)[C@H]([C@@H](C)O)NC1=O [CASPOFUNGIN] | 0.25 (≈ 0.229 µM) | 0.5 (≈ 0.457 µM) | 0.125 (≈ 0.114 µM) | 0.25 (≈ 0.229 µM) | 0.06 (≈ 0.0549 µM) | 1 (≈ 0.915 µM) | 0.5 (≈ 0.457 µM) | 1 (≈ 0.915 µM) | 1 (≈ 0.915 µM) | 1 (≈ 0.915 µM) | Activity (Pichia kudriavzevii [5]): 10%; Activity (Candida tropicalis [6]): 40%; Activity (Candida albicans [7]): 60%; Activity (Candida parapsilosis [8]): 90%; Activity (Nakaseomyces glabratus [9]): 0%
CCCCCOc1ccc(-c2ccc(-c3ccc(C(=O)N[C@H]4C[C@@H](O)[C@@H](O)NC(=O)[C@@H]5[C@@H](O)[C@@H](C)CN5C(=O)[C@H]([C@@H](C)O)NC(=O)[C@H]([C@H](O)[C@@H](O)c5ccc(O)cc5)NC(=O)[C@@H]5C[C@@H](O)CN5C(=O)[C@H]([C@@H](C)O)NC4=O)cc3)cc2)cc1 [ANIDULAFUNGIN] ({pTerphenylCO(4''-OnC5H11)}-[Orn(4R-OH,5R-OH)]T[Hyp][hTyr(3S-OH,4S-OH)]T[Pro(3S-OH,4S-Me)]; lactam 1-C) | 0.5 (≈ 0.438 µM) | 0.5 (≈ 0.438 µM) | 0.5 (≈ 0.438 µM) | 1 (≈ 0.877 µM) | 0.25 (≈ 0.219 µM) | 0.25 (≈ 0.219 µM) | 0.5 (≈ 0.438 µM) | 0.5 (≈ 0.438 µM) | 0.5 (≈ 0.438 µM) | 1 (≈ 0.877 µM) | Activity (Pichia kudriavzevii [11]): 0%; Activity (Nakaseomyces glabratus [12]): 0%; Activity (Candida parapsilosis [13]): 0%; Activity (Candida tropicalis [14]): 20%; Activity (Candida albicans [15]): 40%
CCCCCOc1ccc(-c2cc(-c3ccc(C(=O)N[C@H]4C[C@@H](O)[C@@H](O)NC(=O)[C@@H]5[C@@H](O)[C@@H](C)CN5C(=O)[C@H]([C@H](O)CC(N)=O)NC(=O)[C@H]([C@H](O)[C@@H](O)c5ccc(O)c(OS(=O)(=O)O)c5)NC(=O)[C@@H]5C[C@@H](O)CN5C(=O)[C@H]([C@@H](C)O)NC4=O)cc3)no2)cc1 [MICAFUNGIN] (X1-[Orn(4R-OH,5R-OH)]T[Hyp][hTyr(3S-OH,4S-OH,3'-OSO3H)][Gln(3R-OH)][Pro(3S-OH,4S-Me)]; lactam 1-C) | 0.06 (≈ 0.0472 µM) | 0.125 (≈ 0.0984 µM) | 0.25 (≈ 0.197 µM) | 0.25 (≈ 0.197 µM) | 0.5 (≈ 0.394 µM) | 0.5 (≈ 0.394 µM) | 1 (≈ 0.787 µM) | 2 (≈ 1.57 µM) | 0.06 (≈ 0.0472 µM) | 0.06 (≈ 0.0472 µM) | Activity (Nakaseomyces glabratus [16]): 0%; Activity (Pichia kudriavzevii [17]): 60%; Activity (Candida parapsilosis [18]): 0%; Activity (Candida tropicalis [19]): 70%; Activity (Candida albicans [20]): 0%
